Non-standard residues stand in square brackets, D forms with d. Residues, ends and D or L forms follow the SMILES beside them. αMeP = C[C@@]1(C(=O)O)CCCN1
Assays:
[1] = system: 12-month old male Wistar rats; experiment: Morris water maze test, spatial reference memory; type: in vivo, rat
Experimental: We used male Wistar rats 12, 8 or 4 months of age.
The Morris water maze test was conducted using a black plastic pool filled to a depth of 25 cm with water colored black with a non-toxic dye. […] The platform remained in that position though the training.
The experiment used extra-maze cues (i.e. objects in the room surrounding the pool) that the rats could use to navigate to the platform. Distinctive posters or paintings were hung on the walls. Furniture in the room was not moved during the testing period. The placement of the pool allowed the experimenter an easy access to it from all sides. The pool was emptied and refilled daily during testing, with water at 25° C.+/−2° C.
The furthermost point in the pool (relative to the position of the experimenter) was designated as “north”, and the other compass points “east”, “south” and “west” were the right-most, bottom and left-most points of the pool respectively. These points were marked with tape on the outside of the pool.
Rats in each group were trained to swim to the submerged platform. The rats received six 60-second trials per day for four consecutive days. A trial began by placing the rat into the water facing the wall of the pool, at one of four start locations (north, south, east, west). […]

gastrointestinal cells = settings: cited from earlier work
[2] = system: subjects with Rett Syndrome; experiment: Placebo controlled study in subjects with Rett Syndrome; type: in vivo, human
Text: Thirty subjects with Rett Syndrome are recruited, Subjects are female and aged between […] (Mean=12.1 SD=4.4). All subjects have an IQ<60 and mutations of the MECP2 gene. Subjects also show ether spike activity in the EEG or an increase in lower frequency bands of the BEG as detected by Fast Fourier Transform (FFT). Subjects are instructed that concomitant medications are to be stable for at least six weeks prior to study. Subjects receiving medication to treat signs of inattention are tested in the morning and instructed to take their medication in the afternoon. Subjects with QTc interval >451 msec are excluded.
The study is a randomized double blind placebo controlled parallel study with three doses of either placebo, 10 mg/kg T.I.D oral G-2-MePE for five days, or 30 mg/kg T.I.D. oral G-2-MePE.
Subjects are tested at baseline using the following instruments: The Rett Syndrome Natural History/Clinical Severity Scale, Aberrant Behavior Checklist Community Edition (ABC), Vinelands, Clinical Global Impression of Severity (CGI-S) and their carers completed the Caregiver Strain Questionnaire (CSQ).
Subjects are brought into clinic on an inpatient basis to enable initial baseline recordings of EEG, ECG and respiratory rate continuously for 24 hours using polysomnography technology. Hand movements are also recorded using the Q-Sensor™. Derived EEG measures include: spikes per unit time in the EEG, overall power of frequency bands of the EEG, QTc and heart rate variability (HRV), and respiratory irregularities.
Adverse events are also recorded using standard safety measures and the SMURF elicitation of adverse events
Statistically, the effect of treatment with G-2-MePE is analysed by conducting a repeated analysis of covariance (ANCOVA) on the effect of treatment on change from baseline scores.

[3] = 30 mg/kg T.I.D. oral, compared to placebo

## C[C@@]1(C(=O)N[C@@H](CCC(=O)O)C(=O)O)CCCN1C(=O)CN [Example G-2-MePE, Glycyl-L-2-methylprolyl-L-glutamic acid] (H-Gly-[αMeP]-Glu-OH)
[1]; high (4.8 mg/day) or low (0.96 mg/day) dose, vs saline-treated controls, 12 month old rats
  time needed to reach the platform, retention phase: decrease in the time needed to reach the platform
[1]; high dose 4.8 mg/day s.c. minipump over 3 weeks, 4-week delay, vs 3-week vehicle
  retention of the original water maze task: improved the retention
Gastrointestinal cells
  degradation by gastrointestinal cells: not degraded
  uptake by gastrointestinal cells: taken up
[2]; [3]
  power of the delta band of the EEG: decreases
  spike activity: decreases
  subscales Nonverbal Communication, Epilepsy/Seizures, Hand use: significant effects
[2]; 10 or 30 mg/kg T.I.D. oral
  Serious Adverse Events: No Serious Adverse Events
  heart rate variability: No effects
  increases in QTC: No instances of increases
  respiratory rate: No effects
[2]; 10 or 30 mg/kg T.I.D. oral, vs placebo
  adverse events: no more adverse events than are present during treatment with placebo
[2]; Rett Syndrome population
  tolerability: well tolerated
[2]; overall
  Rett Syndrome Natural History/Clinical Severity Score: no significant effect overall
[2]; overall treatment effect
  spikes per unit time in the EEG: significant overall reduction
[2]; significant for the 30 mg/kg T.I.D. dose compared to placebo
  total hand movements per twenty-four hour period (Q-Sensor): reduces

— patent publication US9212204B2, “Treatment of rett syndrome using glycyl-L-2-methylprolyl-L-glutamic acid” (priority 2011, dated 2015)
